# Results as given in BindingDB's records for patent US20240115574 (The Johns Hopkins University, 2024).
# Target: T1, Sphingomyelin phosphodiesterase 3 (Homo sapiens, UniProt Q9NY59)
# T1 sequence (Q9NY59 whole entry): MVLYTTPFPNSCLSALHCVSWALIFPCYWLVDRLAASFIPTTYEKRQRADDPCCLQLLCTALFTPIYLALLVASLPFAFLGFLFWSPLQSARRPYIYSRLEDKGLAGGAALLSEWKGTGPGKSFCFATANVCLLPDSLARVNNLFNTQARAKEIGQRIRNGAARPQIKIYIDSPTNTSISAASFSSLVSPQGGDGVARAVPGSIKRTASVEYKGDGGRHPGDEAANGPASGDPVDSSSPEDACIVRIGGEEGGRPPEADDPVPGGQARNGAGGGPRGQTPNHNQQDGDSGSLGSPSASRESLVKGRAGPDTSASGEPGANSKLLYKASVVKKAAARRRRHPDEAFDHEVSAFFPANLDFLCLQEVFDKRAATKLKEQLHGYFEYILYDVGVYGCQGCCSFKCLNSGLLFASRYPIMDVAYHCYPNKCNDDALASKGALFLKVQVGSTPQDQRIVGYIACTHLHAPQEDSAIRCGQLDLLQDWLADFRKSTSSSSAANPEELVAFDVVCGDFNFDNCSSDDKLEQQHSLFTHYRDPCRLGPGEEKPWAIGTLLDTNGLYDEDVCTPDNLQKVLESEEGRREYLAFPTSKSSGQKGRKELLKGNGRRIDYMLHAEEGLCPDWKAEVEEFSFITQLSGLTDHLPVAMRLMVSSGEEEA
# Test: Not found
# Excerpt: Not found
row,Compound,IC50 [µM]
1,"COc1ccc(-n2cnc3c(N4CC[C@@H](NC(C)=O)C4)nc(C)nc32)cc1OC [US20240115574, Entry 2-PROV]",> 100
2,"COc1ccc(-n2c(C)nc3c(N4CC[C@@H](NC(C)=O)C4)ncnc32)cc1OC [US20240115574, Entry 5-PROV]",> 100
3,"COc1ccc(-n2cnc3c(N4CC[C@@H](NC(C)=O)C4)ncnc32)cc1OC [US20240115574, Entry 6-PROV]",> 100
4,"COc1ccc(-c2c(C)nn3c(N4CC[C@@H](NC(C)=O)C4)cc(C)nc23)cc1OC [US20240115574, Entry 7-PROV]",> 100
5,"COc1ccc(-n2ncc3c(N4CC[C@@H](NC(C)=O)C4)nc(C)nc32)cc1OC [US20240115574, Entry 10-PROV]",> 100
6,"COc1ccc(-c2c3nc(C)nc(N4CC[C@@H](NC(C)=O)C4)c3nn2C)cc1OC [US20240115574, Entry 12-PROV]",> 100
7,"COc1ccc(-c2nn(C)c3c(N4CC[C@@H](NC(C)=O)C4)nc(C)nc23)cc1OC [US20240115574, Entry 13-PROV]",> 100
8,"COc1ccc(-c2c(C)nn3c(N4CC[C@@H](NC(C)=O)C4)nc(C)nc23)cc1OC [US20240115574, Entry 36-PROV]",> 100
